ChEMBL document CHEMBL3991601, “The target landscape of clinical kinase drugs” (Science, 2017)
Where a name gives a salt, the structure may show the parent alone. The source made the active and inactive calls.

How the values were obtained:
[1] = molecular target: Serine/threonine-protein kinase 24 (Homo sapiens, UniProt Q9Y6E0)
[2] = molecular target: Serine/threonine-protein kinase N3 (Homo sapiens, UniProt Q6P5Z2)
[3] = molecular target: T1, Isoleucine--tRNA ligase, mitochondrial (Homo sapiens, UniProt Q9NSE4)
T1 sequence (Q9NSE4 whole entry): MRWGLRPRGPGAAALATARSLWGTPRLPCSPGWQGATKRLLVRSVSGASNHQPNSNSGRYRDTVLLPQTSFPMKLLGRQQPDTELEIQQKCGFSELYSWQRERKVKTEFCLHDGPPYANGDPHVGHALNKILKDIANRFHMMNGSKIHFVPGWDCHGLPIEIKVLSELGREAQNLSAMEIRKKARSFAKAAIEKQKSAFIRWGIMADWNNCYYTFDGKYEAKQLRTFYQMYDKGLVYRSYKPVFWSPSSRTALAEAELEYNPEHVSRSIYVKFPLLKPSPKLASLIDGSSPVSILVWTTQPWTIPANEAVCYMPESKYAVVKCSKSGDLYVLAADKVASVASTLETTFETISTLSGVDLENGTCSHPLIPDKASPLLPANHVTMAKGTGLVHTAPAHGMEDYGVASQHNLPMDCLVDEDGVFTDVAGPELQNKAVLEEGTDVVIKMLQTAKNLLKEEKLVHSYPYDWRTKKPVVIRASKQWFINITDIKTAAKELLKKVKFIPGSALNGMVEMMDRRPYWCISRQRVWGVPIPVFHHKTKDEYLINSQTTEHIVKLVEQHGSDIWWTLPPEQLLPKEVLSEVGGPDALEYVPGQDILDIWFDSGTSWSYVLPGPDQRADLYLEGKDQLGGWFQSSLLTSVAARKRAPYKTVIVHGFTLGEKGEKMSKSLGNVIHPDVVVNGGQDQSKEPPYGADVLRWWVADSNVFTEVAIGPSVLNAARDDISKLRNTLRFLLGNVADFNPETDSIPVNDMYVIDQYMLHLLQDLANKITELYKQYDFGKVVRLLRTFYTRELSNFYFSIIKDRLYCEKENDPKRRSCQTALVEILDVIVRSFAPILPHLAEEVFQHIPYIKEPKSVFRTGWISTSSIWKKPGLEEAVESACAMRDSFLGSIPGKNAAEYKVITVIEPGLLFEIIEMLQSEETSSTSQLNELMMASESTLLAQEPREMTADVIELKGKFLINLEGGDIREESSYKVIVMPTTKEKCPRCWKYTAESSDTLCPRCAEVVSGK

[4] = molecular target: T2, Electron transfer flavoprotein subunit beta (Homo sapiens, UniProt P38117)
T2 sequence (P38117 whole entry): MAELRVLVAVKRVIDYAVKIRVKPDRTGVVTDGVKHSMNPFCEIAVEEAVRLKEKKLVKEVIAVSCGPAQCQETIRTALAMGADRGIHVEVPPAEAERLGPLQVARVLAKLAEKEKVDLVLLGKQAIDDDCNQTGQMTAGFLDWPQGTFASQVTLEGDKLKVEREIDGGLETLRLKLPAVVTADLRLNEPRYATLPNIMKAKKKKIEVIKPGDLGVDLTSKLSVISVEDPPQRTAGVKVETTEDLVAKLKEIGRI

[5] = molecular target: Choline-phosphate cytidylyltransferase A (Homo sapiens, UniProt P49585)
Sequence of Choline-phosphate cytidylyltransferase A (P49585 whole entry): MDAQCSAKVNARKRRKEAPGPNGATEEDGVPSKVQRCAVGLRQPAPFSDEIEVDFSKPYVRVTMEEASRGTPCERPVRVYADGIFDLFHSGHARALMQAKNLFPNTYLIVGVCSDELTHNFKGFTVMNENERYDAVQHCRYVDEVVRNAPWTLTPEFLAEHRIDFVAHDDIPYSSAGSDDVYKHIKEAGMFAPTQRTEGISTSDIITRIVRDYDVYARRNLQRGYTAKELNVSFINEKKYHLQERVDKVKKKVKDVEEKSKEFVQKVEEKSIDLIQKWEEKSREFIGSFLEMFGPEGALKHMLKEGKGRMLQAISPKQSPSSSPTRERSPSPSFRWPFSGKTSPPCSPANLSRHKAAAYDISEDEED

[6] = molecular target: Serine/threonine-protein kinase ATR (Homo sapiens, UniProt Q13535)
Sequence of Serine/threonine-protein kinase ATR (Q13535 whole entry): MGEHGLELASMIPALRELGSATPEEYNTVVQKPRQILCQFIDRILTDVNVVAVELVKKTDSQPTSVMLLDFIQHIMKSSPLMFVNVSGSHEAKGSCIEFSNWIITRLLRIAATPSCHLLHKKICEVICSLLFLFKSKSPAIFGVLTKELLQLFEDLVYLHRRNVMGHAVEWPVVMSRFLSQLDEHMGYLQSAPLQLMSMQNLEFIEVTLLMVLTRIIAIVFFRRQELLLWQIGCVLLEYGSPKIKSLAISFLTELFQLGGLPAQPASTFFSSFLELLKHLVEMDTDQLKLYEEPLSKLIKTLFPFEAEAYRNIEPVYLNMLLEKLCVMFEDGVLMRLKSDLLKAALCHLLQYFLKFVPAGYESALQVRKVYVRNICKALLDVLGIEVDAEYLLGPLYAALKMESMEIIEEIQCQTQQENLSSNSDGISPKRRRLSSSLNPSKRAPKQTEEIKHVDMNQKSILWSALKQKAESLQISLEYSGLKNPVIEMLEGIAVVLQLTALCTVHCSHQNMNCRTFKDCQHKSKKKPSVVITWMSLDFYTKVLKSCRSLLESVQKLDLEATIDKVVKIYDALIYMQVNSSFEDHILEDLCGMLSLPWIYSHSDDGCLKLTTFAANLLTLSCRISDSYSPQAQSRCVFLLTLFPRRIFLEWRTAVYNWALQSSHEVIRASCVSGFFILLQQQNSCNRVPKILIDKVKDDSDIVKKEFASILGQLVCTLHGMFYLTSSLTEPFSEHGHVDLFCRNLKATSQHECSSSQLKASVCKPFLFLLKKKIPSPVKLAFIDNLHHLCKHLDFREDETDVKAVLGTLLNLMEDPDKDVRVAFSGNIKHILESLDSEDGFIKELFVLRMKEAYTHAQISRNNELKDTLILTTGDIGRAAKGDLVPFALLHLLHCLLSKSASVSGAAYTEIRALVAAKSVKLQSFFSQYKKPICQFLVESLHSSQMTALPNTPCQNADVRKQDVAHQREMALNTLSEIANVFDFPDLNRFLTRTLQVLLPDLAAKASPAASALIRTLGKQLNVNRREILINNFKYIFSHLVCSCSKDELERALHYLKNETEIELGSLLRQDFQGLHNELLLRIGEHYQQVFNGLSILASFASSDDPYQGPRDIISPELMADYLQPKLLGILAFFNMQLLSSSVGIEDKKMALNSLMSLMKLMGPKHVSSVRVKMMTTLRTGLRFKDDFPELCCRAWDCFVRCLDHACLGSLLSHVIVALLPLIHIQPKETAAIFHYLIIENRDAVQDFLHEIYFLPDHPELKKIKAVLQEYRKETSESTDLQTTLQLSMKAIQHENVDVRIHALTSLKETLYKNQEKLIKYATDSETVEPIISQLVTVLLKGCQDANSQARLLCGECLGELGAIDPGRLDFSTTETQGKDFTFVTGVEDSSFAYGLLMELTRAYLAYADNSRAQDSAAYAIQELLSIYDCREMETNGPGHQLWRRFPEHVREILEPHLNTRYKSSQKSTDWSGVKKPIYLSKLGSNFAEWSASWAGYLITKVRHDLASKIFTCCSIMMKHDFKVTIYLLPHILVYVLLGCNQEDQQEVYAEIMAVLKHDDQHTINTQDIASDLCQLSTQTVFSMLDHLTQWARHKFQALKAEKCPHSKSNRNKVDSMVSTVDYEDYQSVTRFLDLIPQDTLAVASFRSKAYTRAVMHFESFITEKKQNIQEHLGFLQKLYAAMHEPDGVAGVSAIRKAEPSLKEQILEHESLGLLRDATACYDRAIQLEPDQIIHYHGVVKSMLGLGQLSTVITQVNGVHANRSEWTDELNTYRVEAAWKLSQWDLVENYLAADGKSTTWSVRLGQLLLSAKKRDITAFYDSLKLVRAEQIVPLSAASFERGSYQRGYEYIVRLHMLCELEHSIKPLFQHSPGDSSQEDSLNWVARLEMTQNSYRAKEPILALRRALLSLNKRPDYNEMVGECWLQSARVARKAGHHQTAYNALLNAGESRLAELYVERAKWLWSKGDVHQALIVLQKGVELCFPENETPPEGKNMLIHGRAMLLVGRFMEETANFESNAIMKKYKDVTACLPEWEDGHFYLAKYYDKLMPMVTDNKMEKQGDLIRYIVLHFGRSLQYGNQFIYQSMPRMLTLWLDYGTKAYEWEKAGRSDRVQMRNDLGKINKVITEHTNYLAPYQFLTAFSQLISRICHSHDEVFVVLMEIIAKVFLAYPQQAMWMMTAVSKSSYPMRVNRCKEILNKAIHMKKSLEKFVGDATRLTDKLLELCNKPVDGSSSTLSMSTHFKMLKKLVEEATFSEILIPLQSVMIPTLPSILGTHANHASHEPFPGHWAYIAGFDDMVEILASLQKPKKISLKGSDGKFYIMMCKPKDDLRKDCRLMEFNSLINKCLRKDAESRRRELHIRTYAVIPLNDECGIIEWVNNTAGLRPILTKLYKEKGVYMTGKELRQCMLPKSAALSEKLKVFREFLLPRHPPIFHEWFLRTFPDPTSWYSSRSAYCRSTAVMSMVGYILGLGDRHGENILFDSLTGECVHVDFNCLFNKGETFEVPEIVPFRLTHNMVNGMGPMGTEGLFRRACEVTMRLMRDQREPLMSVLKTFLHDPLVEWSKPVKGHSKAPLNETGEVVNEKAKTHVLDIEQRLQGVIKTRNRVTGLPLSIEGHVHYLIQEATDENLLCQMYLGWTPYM

[7] = molecular target: T3, Long-chain-fatty-acid--CoA ligase 5 (Homo sapiens, UniProt Q9ULC5)
T3 sequence (Q9ULC5 whole entry): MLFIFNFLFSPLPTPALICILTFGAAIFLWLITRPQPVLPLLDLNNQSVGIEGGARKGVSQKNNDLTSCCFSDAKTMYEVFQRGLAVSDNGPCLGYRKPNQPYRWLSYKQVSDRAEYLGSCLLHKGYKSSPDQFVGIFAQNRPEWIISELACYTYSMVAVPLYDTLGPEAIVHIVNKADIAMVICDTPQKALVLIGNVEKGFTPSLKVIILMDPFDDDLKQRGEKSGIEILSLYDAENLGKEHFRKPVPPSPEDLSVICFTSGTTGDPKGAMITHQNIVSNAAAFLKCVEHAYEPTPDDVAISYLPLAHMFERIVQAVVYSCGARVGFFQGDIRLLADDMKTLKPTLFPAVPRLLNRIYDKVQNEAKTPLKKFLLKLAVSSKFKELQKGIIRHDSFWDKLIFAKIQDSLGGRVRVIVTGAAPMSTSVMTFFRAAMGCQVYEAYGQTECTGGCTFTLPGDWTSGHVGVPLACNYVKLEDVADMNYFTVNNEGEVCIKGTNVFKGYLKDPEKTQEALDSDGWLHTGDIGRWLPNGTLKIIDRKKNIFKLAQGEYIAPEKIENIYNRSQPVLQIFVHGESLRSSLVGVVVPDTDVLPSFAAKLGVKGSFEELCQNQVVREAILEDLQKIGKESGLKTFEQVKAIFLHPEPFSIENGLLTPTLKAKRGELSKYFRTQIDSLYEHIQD

[8] = molecular target: Dual specificity protein kinase CLK4 (Homo sapiens, UniProt Q9HAZ1)
Sequence of Dual specificity protein kinase CLK4 (Q9HAZ1 whole entry): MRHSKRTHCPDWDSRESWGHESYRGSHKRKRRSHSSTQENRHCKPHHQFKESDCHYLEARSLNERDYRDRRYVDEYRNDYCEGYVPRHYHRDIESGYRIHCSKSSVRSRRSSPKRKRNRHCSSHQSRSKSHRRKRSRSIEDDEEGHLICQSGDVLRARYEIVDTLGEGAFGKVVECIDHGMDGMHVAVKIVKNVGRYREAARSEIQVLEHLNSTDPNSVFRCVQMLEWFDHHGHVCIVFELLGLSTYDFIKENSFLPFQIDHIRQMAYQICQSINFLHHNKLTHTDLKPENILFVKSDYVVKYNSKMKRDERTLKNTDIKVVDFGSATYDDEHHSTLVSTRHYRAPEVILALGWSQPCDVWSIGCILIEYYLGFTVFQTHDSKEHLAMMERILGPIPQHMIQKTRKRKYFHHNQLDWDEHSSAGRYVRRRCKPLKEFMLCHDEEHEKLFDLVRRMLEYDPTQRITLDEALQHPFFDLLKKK

Measured: Kd
Also: in the data inactive means no Kd found up to 30 µM.

Sequence of Serine/threonine-protein kinase 24 (Q9Y6E0 whole entry): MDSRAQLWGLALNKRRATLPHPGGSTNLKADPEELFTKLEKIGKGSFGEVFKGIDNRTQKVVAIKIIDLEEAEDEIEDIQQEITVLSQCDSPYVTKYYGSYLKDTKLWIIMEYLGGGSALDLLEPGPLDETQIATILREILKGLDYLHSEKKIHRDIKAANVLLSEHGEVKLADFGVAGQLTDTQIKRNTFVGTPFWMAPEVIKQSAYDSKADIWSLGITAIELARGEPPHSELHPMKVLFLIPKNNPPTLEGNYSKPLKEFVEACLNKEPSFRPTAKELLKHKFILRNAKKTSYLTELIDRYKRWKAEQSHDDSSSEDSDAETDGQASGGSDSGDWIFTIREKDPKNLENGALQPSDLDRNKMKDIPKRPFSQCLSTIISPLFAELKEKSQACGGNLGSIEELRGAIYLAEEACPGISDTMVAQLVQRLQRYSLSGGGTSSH
Sequence of Serine/threonine-protein kinase N3 (Q6P5Z2 whole entry): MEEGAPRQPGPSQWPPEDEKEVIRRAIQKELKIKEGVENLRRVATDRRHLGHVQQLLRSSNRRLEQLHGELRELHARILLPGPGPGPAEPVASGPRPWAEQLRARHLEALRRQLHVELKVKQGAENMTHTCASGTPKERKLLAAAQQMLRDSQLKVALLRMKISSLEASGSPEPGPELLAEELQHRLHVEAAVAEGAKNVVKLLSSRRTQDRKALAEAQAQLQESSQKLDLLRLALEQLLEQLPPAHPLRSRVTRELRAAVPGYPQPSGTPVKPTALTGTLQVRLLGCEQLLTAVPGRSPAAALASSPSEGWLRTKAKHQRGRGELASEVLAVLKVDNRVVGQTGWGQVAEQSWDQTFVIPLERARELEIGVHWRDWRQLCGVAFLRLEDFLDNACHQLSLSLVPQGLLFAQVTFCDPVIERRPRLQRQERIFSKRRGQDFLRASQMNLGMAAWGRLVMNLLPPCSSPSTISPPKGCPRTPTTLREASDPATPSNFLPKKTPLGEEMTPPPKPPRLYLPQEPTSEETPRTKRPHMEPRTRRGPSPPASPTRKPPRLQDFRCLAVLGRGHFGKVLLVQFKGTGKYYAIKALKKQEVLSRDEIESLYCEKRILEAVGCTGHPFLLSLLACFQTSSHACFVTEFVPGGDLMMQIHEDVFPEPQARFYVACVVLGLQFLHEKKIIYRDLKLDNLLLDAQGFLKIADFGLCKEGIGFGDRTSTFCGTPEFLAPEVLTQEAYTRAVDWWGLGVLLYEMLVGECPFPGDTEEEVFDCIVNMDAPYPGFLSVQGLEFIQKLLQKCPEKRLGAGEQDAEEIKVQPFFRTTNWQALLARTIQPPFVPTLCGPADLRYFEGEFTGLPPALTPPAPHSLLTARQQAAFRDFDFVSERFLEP

C[C@@H](Oc1cc(C(=O)Nc2ccc(C(=O)N3CCN(C)CC3)cc2)nnc1N)c1c(Cl)ccc(F)c1Cl
inactive: [1] > 30 µM

C[C@H]1CNCCCN1S(=O)(=O)c1cccc2cncc(F)c12
inactive: [1] > 30 µM

CC(=O)c1cnc2ccc(-c3cc(Cl)c(O)c(Cl)c3)nc2c1N[C@H]1CC[C@H](CN(C)C)CC1
inactive: [2] > 30 µM | [3] > 30 µM | [4] > 30 µM | [5] > 30 µM

CCNC(=O)C#Cc1ccc2c(c1)NC(=O)/C2=C(\Nc1ccc(CN(C)C)cc1)c1ccccc1
inactive: [6] > 30 µM | [1] > 30 µM | [7] > 30 µM

COCc1c(-c2ccc(NC(=O)Nc3cc(C(F)(F)F)ccc3F)c(F)c2)c2c(N)ncnn2c1CN1CCOCC1
inactive: [2] > 30 µM | [3] > 30 µM | [8] > 30 µM | [6] > 30 µM | [1] > 30 µM | [4] > 30 µM | [7] > 30 µM

O=C(Nc1c[nH]nc1-c1nc2cc(CN3CCOCC3)ccc2[nH]1)NC1CC1 [AT-9283]
inactive: [2] > 30 µM | [3] > 30 µM | [4] > 30 µM | [5] > 30 µM | [7] > 30 µM

C=CC(=O)Nc1cc2c(Nc3ccc(F)c(Cl)c3)ncnc2cc1C#CC(C)(C)N1CCN(C)CC1 [AV-412 FREE BASE]
inactive: [2] > 30 µM | [8] > 30 µM | [6] > 30 µM | [7] > 30 µM

CNC(=O)c1ccccc1Sc1ccc2c(/C=C/c3ccccn3)n[nH]c2c1 [AXITINIB]
inactive: [2] > 30 µM | [4] > 30 µM | [5] > 30 µM | [7] > 30 µM

COc1cc([C@@H]2c3cc4c(cc3[C@H](O)[C@H]3COC(=O)[C@@H]23)OCO4)cc(OC)c1OC [AXL-1717]
inactive: [3] > 30 µM | [1] > 30 µM | [4] > 30 µM | [7] > 30 µM

NC(=O)Nc1cc(-c2cccc(F)c2)sc1C(=O)N[C@H]1CCCNC1 [AZD-7762]
inactive: [8] > 30 µM | [4] > 30 µM | [7] > 30 µM

CCn1c(C(=O)N(C2CC2)C2CC2)cc2c3c(ncn3C)c(Nc3cc(C)n(C)n3)nc21 [BMS-911543]
inactive: [3] > 30 µM | [8] > 30 µM | [6] > 30 µM | [1] > 30 µM | [4] > 30 µM | [7] > 30 µM

C#Cc1cccc(Nc2ncnc3cc(OC)c(OCCCCCCC(=O)NO)cc23)c1 [CUDC-101]
inactive: [2] > 30 µM | [8] > 30 µM | [4] > 30 µM | [5] > 30 µM | [7] > 30 µM

CCS(=O)(=O)N1CCN(c2ccc(Nc3ncc(C(N)=O)c(NC4CC4)n3)cc2)CC1 [Cerdulatinib Hydrochloride]
inactive: [8] > 30 µM | [6] > 30 µM | [7] > 30 µM

Cn1cc(C2=C(c3cn(C4CCN(Cc5ccccn5)CC4)c4ccccc34)C(=O)NC2=O)c2ccccc21 [ENZASTAURIN]
inactive: [6] > 30 µM

Cc1nc2cc(-n3ncc(C(=O)c4cc5ccccc5[nH]4)c3N)ccc2[nH]1 [FGFR INHIBITOR DEBIO 1347]
inactive: [3] > 30 µM | [1] > 30 µM | [4] > 30 µM | [7] > 30 µM

Cc1cccc(-c2nn3c(c2-c2ccnc4ccc(C(N)=O)cc24)CCC3)n1 [GALUNISERTIB]
inactive: [3] > 30 µM | [8] > 30 µM | [6] > 30 µM | [1] > 30 µM | [4] > 30 µM | [7] > 30 µM

COc1ccc(S(=O)(=O)N(C(C)=O)c2ccccc2/C=C/c2cc[n+]([O-])cc2)cc1 [HMN-214]
inactive: [2] > 30 µM | [8] > 30 µM | [6] > 30 µM | [1] > 30 µM | [5] > 30 µM

NC1(c2ccc(-c3nc4ccn5c(=O)[nH]nc5c4cc3-c3ccccc3)cc2)CCC1 [MK-2206]
inactive: [2] > 30 µM | [3] > 30 µM | [1] > 30 µM | [5] > 30 µM | [7] > 30 µM

CN(C[C@@H]1COCCO1)S(=O)(=O)Nc1ccc2ccc3ncc(-c4cnn(C)c4)cc3c(=O)c2c1 [MK-2461]
inactive: [3] > 30 µM | [1] > 30 µM | [4] > 30 µM

Cn1cc(-c2cnc3ccc4ccc(CS(=O)(=O)NCc5ccccn5)cc4c(=O)c3c2)cn1 [MK-8033]
inactive: [2] > 30 µM | [3] > 30 µM | [8] > 30 µM | [6] > 30 µM | [4] > 30 µM | [7] > 30 µM

CNC(=O)c1cc(Oc2ccc(NC(=O)Nc3cc(C(C)(C)C)nn3-c3ccc4ncccc4c3)c(F)c2)ccn1 [REBASTINIB]
inactive: [2] > 30 µM | [5] > 30 µM
2.53 µM: [8]

O=C(NOCCO)c1cc(CN2OCCCC2=O)c(F)c(F)c1Nc1ccc(I)cc1F [RO-4987655]
inactive: [2] > 30 µM | [3] > 30 µM | [6] > 30 µM | [4] > 30 µM | [7] > 30 µM

N#CC[C@H](C1CCCC1)n1cc(-c2ncnc3[nH]ccc23)cn1 [RUXOLITINIB]
inactive: [3] > 30 µM | [4] > 30 µM

O=c1[nH]ccc2cc(OC3CCNCC3)ccc12 [SAR-407899 FREE BASE]
inactive: [3] > 30 µM | [8] > 30 µM | [6] > 30 µM | [1] > 30 µM | [4] > 30 µM | [7] > 30 µM

Cn1cc(-c2cnn3c(N)c(Br)c([C@@H]4CCCNC4)nc23)cn1 [SCH-900776]
inactive: [8] > 30 µM | [4] > 30 µM | [7] > 30 µM

Cc1cc(Nc2ncnc3ccc(NC4=NC(C)(C)CO4)cc23)ccc1Oc1ccn2ncnc2c1 [TUCATINIB]
inactive: [2] > 30 µM | [3] > 30 µM | [8] > 30 µM | [1] > 30 µM | [5] > 30 µM

Cn1ncc(Cl)c1-c1cc(C(=O)N[C@H](CN)Cc2ccc(F)c(F)c2)oc1Cl [UPROSERTIB]
inactive: [1] > 30 µM | [4] > 30 µM

CC(C)c1cc(CNc2nc(Nc3cc(C4CC4)[nH]n3)cc(N3CCN(C)CC3)n2)on1 [XL-228]
inactive: [8] > 30 µM | [6] > 30 µM | [1] > 30 µM | [5] > 30 µM | [7] > 30 µM

CN1C/C=C/CCOc2cccc(c2)-c2ccnc(n2)Nc2cccc(c2)C1 [ZOTIRACICLIB]
inactive: [3] > 30 µM | [6] > 30 µM | [7] > 30 µM
